From paper PMC7402526, “An in vitro quantitative systems pharmacology approach for deconvolving mechanisms of drug-induced, multilineage cytopenias” (PLoS Computational Biology, 2020)
“Also recorded” adds a separate entry of the source.

Experiments:
[1] = test system: hematopoietic stem cells (HSCs); experiment: Multi-lineage toxicity assay (MLTA), HSCs: concentration-response and QSP model fit; assay type: cell-based, human; settings: Homo sapiens, Hematopoietic stem cell, 144 h
How it was run: (§1)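 Freeze-thawed primary human bone marrow CD34+ cells were grown in SFEM II with a multi-lineage cytokine cocktail, drug added day 0, six days at 37°C. Lineage counts came from 17-parameter flow with TruCount beads, vehicle-normalized per donor, then fitted by an Emax-based QSP model.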

[2] = test system: monocyte progenitors (monocyte prog); experiment: MLTA, MonoP: concentration-response and QSP model fit; assay type: cell-based, human; settings: Homo sapiens, Monocyte, 144 h
How it was run: (§2)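 Drug was added at time 0 to thawed human bone marrow CD34+ cells in SFEM II plus a cytokine cocktail. After 6 days at 37°C, subsets were counted by surface-marker flow with TruCount beads. Vehicle-normalized, donor-pooled data then fed an Emax model separating anti-proliferative from cell-killing effects.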

monocytes (monocyte-lin) = experiment: MLTA, Mono: concentration-response and QSP model fit; assay type: cell-based, human; settings: Homo sapiens, Monocyte, 144 h
How it was run: as §2

[3] = test system: neutrophils (neutrophil-lin); experiment: MLTA, Neut: concentration-response and QSP model fit; assay type: cell-based, human; settings: Homo sapiens, Neutrophil, 144 h
How it was run: as §1

[4] = test system: early erythroid cells (Eryth I); experiment: MLTA, ErythI: concentration-response and QSP model fit; assay type: cell-based, human; settings: Homo sapiens, 144 h
How it was run: as §2

[5] = test system: late erythroid cells (Eryth II); experiment: MLTA, ErythII: concentration-response and QSP model fit; assay type: cell-based, human; settings: Homo sapiens, 144 h
How it was run: as §1

[6] = test system: total dead cells (totalDeadCells); experiment: MLTA, total dead cells concentration-response; assay type: cell-based; settings: Homo sapiens, 144 h, 6 days, normalized to vehicle control, read-out: total_dead normalized cell count
How it was run: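 Freeze-thawed primary human bone marrow CD34+ cells in SFEM II with cytokine cocktail, drug added day 0, 6 days at 37°C, 5% CO2. Live/dead counts by 17-parameter flow cytometry with DAPI exclusion, bead-normalized, volume-corrected to cells/mL. Normalized per donor to mean of six vehicle wells; 2–7 donors pooled.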

[7] = test system: human bone marrow-derived CD34+ cells differentiated into multiple hematopoietic lineages; experiment: MLTA, overall effects across hematopoietic lineages; assay type: cell-based
How it was run: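 Thawed primary human bone marrow CD34+ cells grown in SFEM II with a multi-lineage cytokine cocktail, drug added day 0, 6 days at 37°C, 5% CO2. Subsets counted by 17-parameter flow cytometry with TruCount beads, normalized to six vehicle wells per donor (2–7 donors); Emax model fitted per cell type.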

O=C1CCC(N2C(=O)c3ccccc3C2=O)C(=O)N1 (stereo not drawn) [thalidomide]
activity at 0.0002 µM ([1]; dose 0.2 nM, 6 days, normalized to vehicle control, read-out: HSCs normalized cell count): 67.6% | activity at 0.001 µM ([1]; dose 1 nM, 6 days, normalized to vehicle control, read-out: HSCs normalized cell count): 92.6% | activity at 0.005 µM ([1]; dose 5 nM, 6 days, normalized to vehicle control, read-out: HSCs normalized cell count): 109% | activity at 0.025 µM ([1]; dose 25 nM, 6 days, normalized to vehicle control, read-out: HSCs normalized cell count): 96.3% | activity at 0.1 µM ([1]; dose 100 nM, 6 days, normalized to vehicle control, read-out: HSCs normalized cell count): 84.9% | activity at 0.5 µM ([1]; dose 500 nM, 6 days, normalized to vehicle control, read-out: HSCs normalized cell count): 99.8% | activity at 2.5 µM ([1]; dose 2500 nM, 6 days, normalized to vehicle control, read-out: HSCs normalized cell count): 113% | Emax ([1]; parameter from QSP model fitting, read-out: Emax_drug_HSC): 0.000374% | activity at 0.0002 µM ([2]; dose 0.2 nM, 6 days, normalized to vehicle control, read-out: MonoPs normalized cell count): 90.1% | activity at 0.001 µM ([2]; dose 1 nM, 6 days, normalized to vehicle control, read-out: MonoPs normalized cell count): 93.5% | activity at 0.005 µM ([2]; dose 5 nM, 6 days, normalized to vehicle control, read-out: MonoPs normalized cell count): 98.4% | activity at 0.025 µM ([2]; dose 25 nM, 6 days, normalized to vehicle control, read-out: MonoPs normalized cell count): 120% | activity at 0.1 µM ([2]; dose 100 nM, 6 days, normalized to vehicle control, read-out: MonoPs normalized cell count): 92% | activity at 0.5 µM ([2]; dose 500 nM, 6 days, normalized to vehicle control, read-out: MonoPs normalized cell count): 82.7% | activity at 2.5 µM ([2]; dose 2500 nM, 6 days, normalized to vehicle control, read-out: MonoPs normalized cell count): 104% | Emax ([2]; parameter from QSP model fitting, read-out: Emax_drug_MonoP): 0.00494% | activity at 0.0002 µM (monocytes (monocyte-lin); dose 0.2 nM, 6 days, normalized to vehicle control, read-out: Mon normalized cell count): 83.3% | activity at 0.001 µM (monocytes (monocyte-lin); dose 1 nM, 6 days, normalized to vehicle control, read-out: Mon normalized cell count): 94% | activity at 0.005 µM (monocytes (monocyte-lin); dose 5 nM, 6 days, normalized to vehicle control, read-out: Mon normalized cell count): 89.4% | activity at 0.025 µM (monocytes (monocyte-lin); dose 25 nM, 6 days, normalized to vehicle control, read-out: Mon normalized cell count): 106% | activity at 0.1 µM (monocytes (monocyte-lin); dose 100 nM, 6 days, normalized to vehicle control, read-out: Mon normalized cell count): 94.4% | activity at 0.5 µM (monocytes (monocyte-lin); dose 500 nM, 6 days, normalized to vehicle control, read-out: Mon normalized cell count): 99.9% | activity at 2.5 µM (monocytes (monocyte-lin); dose 2500 nM, 6 days, normalized to vehicle control, read-out: Mon normalized cell count): 97.3% | Emax (monocytes (monocyte-lin); parameter from QSP model fitting, read-out: Emax_drug_Mono): 0.00608% | activity at 0.0002 µM ([3]; dose 0.2 nM, 6 days, normalized to vehicle control, read-out: Neut normalized cell count): 99.5% | activity at 0.001 µM ([3]; dose 1 nM, 6 days, normalized to vehicle control, read-out: Neut normalized cell count): 79.1% | activity at 0.005 µM ([3]; dose 5 nM, 6 days, normalized to vehicle control, read-out: Neut normalized cell count): 88.2% | activity at 0.025 µM ([3]; dose 25 nM, 6 days, normalized to vehicle control, read-out: Neut normalized cell count): 94.5% | activity at 0.1 µM ([3]; dose 100 nM, 6 days, normalized to vehicle control, read-out: Neut normalized cell count): 62.4% | activity at 0.5 µM ([3]; dose 500 nM, 6 days, normalized to vehicle control, read-out: Neut normalized cell count): 69% | activity at 2.5 µM ([3]; dose 2500 nM, 6 days, normalized to vehicle control, read-out: Neut normalized cell count): 96.9% | Emax ([3]; parameter from QSP model fitting, read-out: Emax_drug_Neut): 1.13% | activity at 0.0002 µM ([4]; dose 0.2 nM, 6 days, normalized to vehicle control, read-out: ErythI normalized cell count): 101% | activity at 0.001 µM ([4]; dose 1 nM, 6 days, normalized to vehicle control, read-out: ErythI normalized cell count): 120% | activity at 0.005 µM ([4]; dose 5 nM, 6 days, normalized to vehicle control, read-out: ErythI normalized cell count): 124% | activity at 0.025 µM ([4]; dose 25 nM, 6 days, normalized to vehicle control, read-out: ErythI normalized cell count): 122% | activity at 0.1 µM ([4]; dose 100 nM, 6 days, normalized to vehicle control, read-out: ErythI normalized cell count): 137% | activity at 0.5 µM ([4]; dose 500 nM, 6 days, normalized to vehicle control, read-out: ErythI normalized cell count): 114% | activity at 2.5 µM ([4]; dose 2500 nM, 6 days, normalized to vehicle control, read-out: ErythI normalized cell count): 136% | Emax ([4]; parameter from QSP model fitting, read-out: Emax_drug_ErythroidI): 0.00343% | activity at 0.0002 µM ([5]; dose 0.2 nM, 6 days, normalized to vehicle control, read-out: ErythII normalized cell count): 94.3% | activity at 0.001 µM ([5]; dose 1 nM, 6 days, normalized to vehicle control, read-out: ErythII normalized cell count): 99.8% | activity at 0.005 µM ([5]; dose 5 nM, 6 days, normalized to vehicle control, read-out: ErythII normalized cell count): 105% | activity at 0.025 µM ([5]; dose 25 nM, 6 days, normalized to vehicle control, read-out: ErythII normalized cell count): 111% | activity at 0.1 µM ([5]; dose 100 nM, 6 days, normalized to vehicle control, read-out: ErythII normalized cell count): 77.8% | activity at 0.5 µM ([5]; dose 500 nM, 6 days, normalized to vehicle control, read-out: ErythII normalized cell count): 87.5% | activity at 2.5 µM ([5]; dose 2500 nM, 6 days, normalized to vehicle control, read-out: ErythII normalized cell count): 93.7% | Emax ([5]; parameter from QSP model fitting, read-out: Emax_drug_ErythroidII): 0.00351% | activity at 0.0002 µM ([6]; dose 0.2 nM): 91.6% | activity at 0.001 µM ([6]; dose 1 nM): 109% | activity at 0.005 µM ([6]; dose 5 nM): 96.3% | activity at 0.025 µM ([6]; dose 25 nM): 120% | activity at 0.1 µM ([6]; dose 100 nM): 113% | activity at 0.5 µM ([6]; dose 500 nM): 105% | activity at 2.5 µM ([6]; dose 2500 nM): 99.8% | effect on hematopoietic cell numbers across cell types ([7]; 0.2-2500 nM, 6 days, relative to vehicle control): least effect on hematopoietic cell types across doses; also recorded: did not drastically decrease cell types | EmaxT effects across cell types (overall statement) ([7]; QSP model fit, EmaxT > 1.0 = cell-killing): ≤ 0.1
